The nature of the series: 17O NMR of DyL4 without and with HSA. The format is physicochemical. The settings on record: no HSA. As to the method: To gain more insights into this process, further ^17O NMR experiments performed using DyL4 in the presence of 0.6 mM HSA (Dy^3+ was substituted for Gd^3+ for improved fitting purposes, FIGS. 2 and 3 and Table 4).
^17O NMR experiments were performed at 9.4 T on a Bruker AVANCE III NMR spectrometer. The temperature was regulated by air flow controlled by a Bruker VT unit. The samples ([Gd^3+]=25 mM; [Dy^3+]=1 mM) were prepared in ^17O enriched water (10%) with the pH being maintained at 7.4 with 100 mM Tris buffer. The sample was loaded into a 18 μL spherical bulb (Wilmad-Lab Glass, Vineland, NJ) and placed inside a 5 mm NMR tube containing 400 μL of water to eliminate any susceptibility effects. Longitudinal relaxation rates (1/T1) were obtained by the inversion recovery method and transverse relaxation rates (1/T2) were obtained by the Carr-Purcell—Meiboom—Gill spin echo technique. The acidified water (pH=3.0) containing 10% enriched ^17O water was used as a reference for the measurements. For the DyL4 complexes (no HSA and with HSA+Zinc), acidified water solutions and 1 mM LaL4+3 mM HSA with zinc (1:1) were used as the corresponding references. The corresponding fittings were performed with the Scientist 3.0 software (Micromath®).
With Dy^3+ solutions the correlation time for dipolar relaxation is governed by the electron spin relaxation time Te which is much shorter than Tm and τR. For this reason, ^17O transversal relaxation rates predominantly originates from Curie spin relaxation (Caravan et al., 2001; Karimi and Helm, 2016). The Curie relaxation is described by Fries (Vigouroux et al., 1999) and simplified by the Swift-Connick equations (Swift and Connick, 1962): […]
The water exchange rates kex and the chemical shift differences (inner-sphere water and bulk water) Δωm can be expressed as: […]
C1 and C2 are empirical constants described by Lewis and Bleaney (1972), and represent the relative contributions of the contact and pseudocontact terms. B is the external magnetic field.

Regarding `O=C(O)CN1CCN(CCC(=O)NCCN(Cc2ccccn2)Cc2ccccn2)CCN(CC(=O)O)CCN(CC(=O)O)CC1` [GdL2], the “1/T2m^298” value is 600 ± 20 10^4 s^−1, the A1 is −73 ± 2 10^6rad s^−1K T^−1, the A2 is 0.3 ± 0.1 10^9rad s^−1K^2 T^−1 and the ER was found to be 9.56 ± 2.39 kcal/mol. Further, the “ΔH^‡” value stood at 9.87 ± 0.12 kcal/mol. Also, for the setting “17O enriched water, TRIS buffered”, the “kex^298” value is given as 4.3 ± 0.1 10^6 s^−1.

Values taken from patent US11713305B2, “Zinc sensors for in vivo imaging of beta-cell function by MRI” (The Board of Regents of the University of Texas System, priority 2017, dated 2023).
